Assay results published in patent US9801738B2, “Liquid cast biodegradable arterial stent” (Northwestern University, priority 2010, dated 2017).

How the values were obtained:
[1] = cited from earlier work
neointimal hyperplasia = assay: rat carotid artery injury model, inhibition of neointimal hyperplasia by NO donors; type: in vivo
Method: Using the standard rat carotid artery injury model, the efficacy of two different diazeniumdiolates with markedly different half-lives at inhibiting neointimal hyperplasia were evaluated. […] The two different NO donors investigated were: 1-[2-(carboxylato)pyrrolidin-1-yl]diazen-1-ium-1,2-diolate (PROLI/NO), a short half-life donor, and diazeniumdiolated poly(acrylonitrile) (PAN/NO), a long half-life donor.
To date, it remains unknown how much NO is required in the vasculature to inhibit the subsequent neointimal hyperplasia from developing in humans. In order to estimate how much NO is required in the vasculature to inhibit the subsequent neointimal hyperplasia from developing in humans, the observed NO release may be compared to: 1) data from animal experiments, and 2) known endogenous NO production in humans. […] Because diazeniumdiolates release 2 moles of NO per mole of compound upon reaction with hydrogen ions, it follows that 20 mg of PROLI/NO releases 160 μmoles of NO. Thus, the current formulation that releases 112 μmole/gm (FIG. 10) is similar to what has been used in rat models. An alternative method of estimating whether the current NO-releasing material will produce sufficient NO is to compare the material against known rates of endogenous NO release. […]

Structure (SMILES)	half-life [1]	inhibition of neointimal hyperplasia (neointimal hyperplasia; applied to the periadventitial aspect of an injured artery, 20 mg in rodents)	inhibition of intimal area versus injury alone (neointimal hyperplasia; two weeks after injury, rat carotid artery injury model, p<0.05)
NCCN(CCN)/[N+]([O-])=N/O [DETA/NO]	20 h		
O=C(O)C1CCCN1[N+]([O-])=NO (stereo not drawn) [PROLI/NO, 1-[2-(carboxylato)pyrrolidin-1-yl]diazen-1-ium-1,2-diolate]		91%	91.2%
